What was measured:
Test in all cases: relative viability (nuclei count vs DMSO), 5 days (fraction); higher = more cells survive
[1] = compound: C1CC(C1)(C(=O)O)C(=O)O.[NH2-].[NH2-].[Pt+2] [Carboplatin] + Cc1nc(Nc2ncc(C(=O)Nc3c(C)cccc3Cl)s2)cc(N2CCN(CCO)CC2)n1 [Dasatinib] (partner 0.075 µM)
In short: (§1)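 Medians of duplicate plates are given as relative viability. That measure is the nuclei count in treated wells divided by the count in vehicle wells. Counts were taken on 4× images of lung cancer cell lines in 1536-well plates, 5 days after pin-tool dosing the day after seeding with one drug alone or a fixed anchor-drug dose plus five library-drug doses (not always all listed) in √10 steps.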

[2] = compound: CC[C@H](C)N1C=C(C2=C(C=C(C=C21)C3=CN=C(C=C3)N4CCNCC4)C(=O)NCC5=C(C=C(NC5=O)C)C)C [GSK126] + CS(=O)(=O)N1CCN(Cc2cc3nc(-c4cccc5[nH]ncc45)nc(N4CCOCC4)c3s2)CC1 [Pictilisib] (partner 1 µM)
In short: as §1

[3] = compound: NS(=O)(=O)OC[C@@H]1C[C@@H](n2ccc3c(N[C@H]4CCc5ccccc54)ncnc32)C[C@@H]1O [MLN4924] + CS(=O)(=O)CCNCc1ccc(-c2ccc3ncnc(Nc4ccc(OCc5cccc(F)c5)c(Cl)c4)c3c2)o1 [Lapatinib] (partner 2 µM)
In short: as §1

[4] = compound: NS(=O)(=O)OC[C@@H]1C[C@@H](n2ccc3c(N[C@H]4CCc5ccccc54)ncnc32)C[C@@H]1O [MLN4924] + CCNC(=O)c1noc(-c2cc(C(C)C)c(O)cc2O)c1-c1ccc(CN2CCOCC2)cc1 [Luminespib] (partner 0.01 µM)
In short: as §1

Cell Line: COR-L 105
- relative viability ([1]; first compound 0.08 µM): 0.364
- relative viability ([1]; first compound 0.253 µM): 0.351
- relative viability ([1]; first compound 0.8 µM): 0.37
- relative viability ([1]; first compound 2.53 µM): 0.293
- relative viability ([1]; first compound 8 µM): 0.297
- relative viability ([2]; first compound 0.08 µM): 0.435
- relative viability ([2]; first compound 0.253 µM): 0.406
- relative viability ([2]; first compound 0.8 µM): 0.347
- relative viability ([2]; first compound 2.53 µM): 0.389
- relative viability ([2]; first compound 8 µM): 0.459
- relative viability ([3]; first compound 0.04 µM): 0.355
- relative viability ([3]; first compound 0.1265 µM): 0.335
- relative viability ([3]; first compound 0.4 µM): 0.337
- relative viability ([3]; first compound 1.265 µM): 0.282
- relative viability ([3]; first compound 4 µM): 0.281
- relative viability ([4]; first compound 0.04 µM): 0.494
- relative viability ([4]; first compound 0.1265 µM): 0.553
- relative viability ([4]; first compound 0.4 µM): 0.283
- relative viability ([4]; first compound 1.265 µM): 0.201
- relative viability ([4]; first compound 4 µM): 0.236

Cell Line: COR-L23
- relative viability ([1]; first compound 0.08 µM): 0.51
- relative viability ([1]; first compound 0.253 µM): 0.536
- relative viability ([1]; first compound 0.8 µM): 0.436
- relative viability ([1]; first compound 2.53 µM): 0.373
- relative viability ([1]; first compound 8 µM): 0.216
- relative viability ([2]; first compound 0.08 µM): 0.946
- relative viability ([2]; first compound 0.253 µM): 0.735
- relative viability ([2]; first compound 0.8 µM): 0.817
- relative viability ([2]; first compound 2.53 µM): 0.839
- relative viability ([2]; first compound 8 µM): 0.768
- relative viability ([3]; first compound 0.04 µM): 0.921
- relative viability ([3]; first compound 0.1265 µM): 0.672
- relative viability ([3]; first compound 0.4 µM): 0.431
- relative viability ([3]; first compound 1.265 µM): 0.142
- relative viability ([3]; first compound 4 µM): 0.106
- relative viability ([4]; first compound 0.04 µM): 0.67
- relative viability ([4]; first compound 0.1265 µM): 0.569
- relative viability ([4]; first compound 0.4 µM): 0.42
- relative viability ([4]; first compound 1.265 µM): 0.174
- relative viability ([4]; first compound 4 µM): 0.139

Cell Line: NCI-H3122
- relative viability ([1]; first compound 0.08 µM): 0.759
- relative viability ([1]; first compound 0.253 µM): 0.996
- relative viability ([1]; first compound 0.8 µM): 0.87
- relative viability ([1]; first compound 2.53 µM): 0.961
- relative viability ([1]; first compound 8 µM): 0.816
- relative viability ([2]; first compound 0.08 µM): 0.61
- relative viability ([2]; first compound 0.253 µM): 0.597
- relative viability ([2]; first compound 0.8 µM): 0.595
- relative viability ([2]; first compound 2.53 µM): 0.684
- relative viability ([2]; first compound 8 µM): 0.703
- relative viability ([3]; first compound 0.04 µM): 0.991
- relative viability ([3]; first compound 0.1265 µM): 0.629
- relative viability ([3]; first compound 0.4 µM): 0.293
- relative viability ([3]; first compound 1.265 µM): 0.177
- relative viability ([3]; first compound 4 µM): 0.206
- relative viability ([4]; first compound 0.04 µM): 0.078
- relative viability ([4]; first compound 0.1265 µM): 0.063
- relative viability ([4]; first compound 0.4 µM): 0.0724
- relative viability ([4]; first compound 1.265 µM): 0.0583
- relative viability ([4]; first compound 4 µM): 0.0491

Cell Line: NCI-H23
- relative viability ([1]; first compound 0.08 µM): 0.918
- relative viability ([1]; first compound 0.253 µM): 0.854
- relative viability ([1]; first compound 0.8 µM): 0.673
- relative viability ([1]; first compound 2.53 µM): 0.534
- relative viability ([1]; first compound 8 µM): 0.663
- relative viability ([2]; first compound 0.08 µM): 0.535
- relative viability ([2]; first compound 0.253 µM): 0.568
- relative viability ([2]; first compound 0.8 µM): 0.418
- relative viability ([2]; first compound 2.53 µM): 0.466
- relative viability ([2]; first compound 8 µM): 0.512
- relative viability ([3]; first compound 0.04 µM): 0.282
- relative viability ([3]; first compound 0.1265 µM): 0.232
- relative viability ([3]; first compound 0.4 µM): 0.202
- relative viability ([3]; first compound 1.265 µM): 0.125
- relative viability ([3]; first compound 4 µM): 0.169
- relative viability ([4]; first compound 0.04 µM): 0.231
- relative viability ([4]; first compound 0.1265 µM): 0.175
- relative viability ([4]; first compound 0.4 µM): 0.228
- relative viability ([4]; first compound 1.265 µM): 0.208
- relative viability ([4]; first compound 4 µM): 0.214

Cell Line: PC-3 [JPC-3]
- relative viability ([1]; first compound 0.08 µM): 1
- relative viability ([1]; first compound 0.253 µM): 1.09
- relative viability ([1]; first compound 0.8 µM): 0.985
- relative viability ([1]; first compound 2.53 µM): 0.95
- relative viability ([1]; first compound 8 µM): 0.864
- relative viability ([2]; first compound 0.08 µM): 0.808
- relative viability ([2]; first compound 0.253 µM): 0.795
- relative viability ([2]; first compound 0.8 µM): 0.814
- relative viability ([2]; first compound 2.53 µM): 0.781
- relative viability ([2]; first compound 8 µM): 0.762
- relative viability ([3]; first compound 0.04 µM): 0.478
- relative viability ([3]; first compound 0.1265 µM): 0.51
- relative viability ([3]; first compound 0.4 µM): 0.277
- relative viability ([3]; first compound 1.265 µM): 0.261
- relative viability ([3]; first compound 4 µM): 0.262
- relative viability ([4]; first compound 0.04 µM): 0.799
- relative viability ([4]; first compound 0.1265 µM): 0.773
- relative viability ([4]; first compound 0.4 µM): 0.552
- relative viability ([4]; first compound 1.265 µM): 0.346
- relative viability ([4]; first compound 4 µM): 0.327

Cell Line: NCI-H2228
- relative viability ([1]; first compound 0.08 µM): 0.667
- relative viability ([1]; first compound 0.253 µM): 0.482
- relative viability ([1]; first compound 0.8 µM): 0.425
- relative viability ([1]; first compound 2.53 µM): 0.444
- relative viability ([1]; first compound 8 µM): 0.326
- relative viability ([2]; first compound 0.08 µM): 0.357
- relative viability ([2]; first compound 0.253 µM): 0.519
- relative viability ([2]; first compound 0.8 µM): 0.494
- relative viability ([2]; first compound 2.53 µM): 0.497
- relative viability ([2]; first compound 8 µM): 0.42
- relative viability ([3]; first compound 0.1265 µM): 0.638
- relative viability ([3]; first compound 0.4 µM): 0.271
- relative viability ([3]; first compound 1.265 µM): 0.13
- relative viability ([3]; first compound 4 µM): 0.161
- relative viability ([4]; first compound 0.04 µM): 0.178
- relative viability ([4]; first compound 0.1265 µM): 0.181
- relative viability ([4]; first compound 0.4 µM): 0.195
- relative viability ([4]; first compound 1.265 µM): 0.19
- relative viability ([4]; first compound 4 µM): 0.113

Cell Line: A549
- relative viability ([2]; first compound 0.08 µM): 0.506
- relative viability ([2]; first compound 0.253 µM): 0.479
- relative viability ([2]; first compound 0.8 µM): 0.485
- relative viability ([2]; first compound 2.53 µM): 0.46
- relative viability ([2]; first compound 8 µM): 0.53
- relative viability ([3]; first compound 0.04 µM): 0.71
- relative viability ([3]; first compound 0.1265 µM): 0.667
- relative viability ([3]; first compound 0.4 µM): 0.079
- relative viability ([3]; first compound 1.265 µM): 0.0634
- relative viability ([3]; first compound 4 µM): 0.0662

Cell Line: NCI-H358
- relative viability ([1]; first compound 0.08 µM): 0.162
- relative viability ([1]; first compound 0.253 µM): 0.171
- relative viability ([1]; first compound 0.8 µM): 0.163
- relative viability ([1]; first compound 2.53 µM): 0.178
- relative viability ([1]; first compound 8 µM): 0.18
- relative viability ([2]; first compound 0.08 µM): 0.32
- relative viability ([2]; first compound 0.253 µM): 0.347
- relative viability ([2]; first compound 0.8 µM): 0.37
- relative viability ([2]; first compound 2.53 µM): 0.332
- relative viability ([2]; first compound 8 µM): 0.442
- relative viability ([3]; first compound 0.04 µM): 0.585
- relative viability ([3]; first compound 0.1265 µM): 0.654
- relative viability ([3]; first compound 0.4 µM): 0.345
- relative viability ([3]; first compound 1.265 µM): 0.25
- relative viability ([3]; first compound 4 µM): 0.236
- relative viability ([4]; first compound 0.04 µM): 0.338
- relative viability ([4]; first compound 0.1265 µM): 0.422
- relative viability ([4]; first compound 0.4 µM): 0.214
- relative viability ([4]; first compound 1.265 µM): 0.105
- relative viability ([4]; first compound 4 µM): 0.111

Reference: the supplement of paper PMC10307832
